Data: patent publication US20230365589A1, “NOVEL AMINE DERIVATIVES” (Sumitomo Pharma Co., Ltd., priority 2020, published 2023)
Like-named read-outs stand apart in the source and are kept apart here.

Tests used:
Type in all cases: biochemical
DYRK1A = target: T1, DYRK1A (Homo sapiens, UniProt Q13627); assay: Inhibition test on activity of DYRK family, mobility shift assay (MSA): DYRK1A
T1 construct: purchased Carna Biosciences, Inc. 04-130
Method in brief: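 Mobility shift assay with recombinant DYRK1A (0.2 ng/μL enzyme solution), FITC-DYRKtide substrate (4 μM in substrate mix), 100 μM ATP in substrate mix, HEPES pH 7.5 buffer with MgCl2; 1 h at room temperature. Phosphorylated vs unphosphorylated peptide peaks quantified; IC50 from regression of inhibition rate against log concentration.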

DYRK1B = target: T2, DYRK1B (Homo sapiens, UniProt Q9Y463); assay: Inhibition test on activity of DYRK family, mobility shift assay (MSA): DYRK1B
T2 construct: purchased Carna Biosciences, Inc. 04-131
Procedure: [Inhibition Test on Activity of DYRK Family (DYRK1A, DYRK1B, DYRK2, and DYRK3)]
The kinase activity was measured by mobility shift assay (MSA) method using QuickScout Screening Assist™ MSA (commercially available kit manufactured by Carna Biosciences, Inc.). The substrate of the kinase reaction used was an FITC-labeled DYRKtide peptide included in the kit. An assay buffer [20 mM HEPES, 0.01% Triton X-100™, 2 mM dithiothreitol, pH 7.5]was used to create a substrate mixture solution with a substrate (4 μM), MgCl2(20 mM), and ATP (DYRK1A: 100 μM; DYRK1B: 200 μM; DYRK2: 40 μM; and DYRK3: 20 μM). In addition, kinases (DYRK1A: manufactured by Carna Biosciences, Inc., Cat. No. 04-130; DYRK1B: manufactured by Carna Biosciences, Inc., Cat. No. 04-131; DYRK2; manufactured by Carna Biosciences, Inc., Cat. No. 04-132; and DYRK3; manufactured by Carna Biosciences, Inc., Cat. No. 04-133) were diluted with the assay buffer to prepare enzyme solutions (DYRK1A: 0.2 ng/μL; DYRK1B: 0.08 ng/μL; DYRK2: 0.04 ng/μL; and DYRK3: 0.25 ng/μL). The 10 mM solution of the test compound in DMSO was further diluted with DMSO to 10 levels of the concentration (0.00003 mM, 0.0001 mM, 0.0003 mM, 0.001 mM, 0.003 mM, 0.01 mM, 0.03 mM, 0.1 mM, 0.3 mM, and 1 mM), each of which was subjected to 25-fold dilution with the assay buffer to obtain a drug solution (4% DMSO solution). 5 μL of the drug solution or a control solution (4% DMSO-assay buffer), 5 μL of the substrate mixture solution, and 10 μL of the enzyme solution were mixed in the wells of a polypropylene 384-well plate and allowed to react at room temperature for 1 hour, and then the reaction was quenched by adding 60 μL of the termination buffer included in the kit. Subsequently, the quantities of the substrates (S) and the phosphorylated substrate (P) in the reaction solution were measured using LabChip EZ Reader II system (manufactured by Caliper Life Sciences) according to the protocol of the assay kit.
The heights of the peaks of the “substrate” and the “phosphorylated substrate” were expressed as S and P, respectively, and a blank containing the assay buffer instead of the enzyme solution was also measured.
The inhibition rate (%) of the test compound was calculated according to the following equation:
Inhibition rate (%)=(1−(C−A)/(B−A))×100 • wherein, A, B, and C represent P/(P+S) of the blank well, P/(P+S) of the control solution well, and P/(P+S) of the compound-containing well, respectively.
The IC50 value was calculated via a regression analysis of the inhibition rate and the test compound concentration (logarithmic value).
The inhibiting activities of representative compounds of the present invention are shown against DYRK1A, DYRK1B, DYRK2, and DYRK3 in Tables.

DYRK2 = target: T3, DYRK2 (Homo sapiens, UniProt Q92630); assay: Inhibition test on activity of DYRK family, mobility shift assay (MSA): DYRK2
T3 construct: purchased Carna Biosciences, Inc. 04-132
T3 sequence (Q92630 74-601 limits assumed): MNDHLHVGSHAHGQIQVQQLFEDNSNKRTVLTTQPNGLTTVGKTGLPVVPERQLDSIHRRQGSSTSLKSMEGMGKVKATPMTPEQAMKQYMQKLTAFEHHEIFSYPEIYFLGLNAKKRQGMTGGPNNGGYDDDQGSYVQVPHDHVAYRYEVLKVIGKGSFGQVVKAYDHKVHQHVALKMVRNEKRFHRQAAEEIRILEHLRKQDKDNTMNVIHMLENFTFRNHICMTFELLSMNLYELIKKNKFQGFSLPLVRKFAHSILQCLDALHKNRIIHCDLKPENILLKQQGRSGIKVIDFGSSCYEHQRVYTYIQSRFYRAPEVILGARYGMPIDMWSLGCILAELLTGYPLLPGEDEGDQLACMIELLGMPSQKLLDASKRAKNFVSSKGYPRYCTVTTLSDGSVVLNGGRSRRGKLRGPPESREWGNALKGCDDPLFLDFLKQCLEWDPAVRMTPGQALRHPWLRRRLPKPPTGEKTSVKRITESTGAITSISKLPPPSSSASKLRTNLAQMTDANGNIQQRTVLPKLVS
Method in brief: (§1)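 Mobility-shift readout of FITC-DYRKtide phosphorylation in 20 mM HEPES pH 7.5. The substrate mix held 4 µM peptide, 20 mM MgCl2 and ATP at 100 (1A), 200 (1B), 40 (2) or 20 µM (3). Reaction 1 h at room temperature; IC50 from regression of P/(P+S)-based inhibition vs log concentration.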

DYRK3 = target: T4, DYRK3 (Homo sapiens, UniProt O43781); assay: Inhibition test on activity of DYRK family, mobility shift assay (MSA): DYRK3
T4 construct: purchased Carna Biosciences, Inc. 04-133
T4 sequence (O43781 1-568 isoform O43781-2): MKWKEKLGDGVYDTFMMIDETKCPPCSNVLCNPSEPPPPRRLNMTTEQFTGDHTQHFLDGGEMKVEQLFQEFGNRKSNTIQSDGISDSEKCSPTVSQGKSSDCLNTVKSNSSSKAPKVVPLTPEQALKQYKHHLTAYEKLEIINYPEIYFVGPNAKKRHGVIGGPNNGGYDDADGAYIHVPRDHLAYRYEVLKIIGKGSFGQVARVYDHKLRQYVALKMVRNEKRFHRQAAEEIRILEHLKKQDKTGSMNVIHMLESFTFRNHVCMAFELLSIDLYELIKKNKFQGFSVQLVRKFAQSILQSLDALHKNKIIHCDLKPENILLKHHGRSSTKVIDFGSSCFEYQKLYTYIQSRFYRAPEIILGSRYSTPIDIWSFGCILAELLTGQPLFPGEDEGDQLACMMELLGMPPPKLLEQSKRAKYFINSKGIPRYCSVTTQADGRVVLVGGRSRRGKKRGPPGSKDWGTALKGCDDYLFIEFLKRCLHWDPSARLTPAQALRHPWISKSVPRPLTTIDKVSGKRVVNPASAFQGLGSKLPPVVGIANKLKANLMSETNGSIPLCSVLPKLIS
Method in brief: as §1

[1] = MSA, FITC-labeled DYRKtide peptide, ATP 100 μM, read-out: Inhibitory activity DYRK 1A (IC50 class)
[2] = MSA, FITC-labeled DYRKtide peptide, ATP 200 μM, read-out: Inhibitory activity DYRK 1B (IC50 class)
[3] = MSA, FITC-labeled DYRKtide peptide, ATP 40 μM, read-out: Inhibitory activity DYRK 2 (IC50 class)
[4] = MSA, FITC-labeled DYRKtide peptide, ATP 20 μM, read-out: Inhibitory activity DYRK 3 (IC50 class)

T2 sequence (Q9Y463 whole entry): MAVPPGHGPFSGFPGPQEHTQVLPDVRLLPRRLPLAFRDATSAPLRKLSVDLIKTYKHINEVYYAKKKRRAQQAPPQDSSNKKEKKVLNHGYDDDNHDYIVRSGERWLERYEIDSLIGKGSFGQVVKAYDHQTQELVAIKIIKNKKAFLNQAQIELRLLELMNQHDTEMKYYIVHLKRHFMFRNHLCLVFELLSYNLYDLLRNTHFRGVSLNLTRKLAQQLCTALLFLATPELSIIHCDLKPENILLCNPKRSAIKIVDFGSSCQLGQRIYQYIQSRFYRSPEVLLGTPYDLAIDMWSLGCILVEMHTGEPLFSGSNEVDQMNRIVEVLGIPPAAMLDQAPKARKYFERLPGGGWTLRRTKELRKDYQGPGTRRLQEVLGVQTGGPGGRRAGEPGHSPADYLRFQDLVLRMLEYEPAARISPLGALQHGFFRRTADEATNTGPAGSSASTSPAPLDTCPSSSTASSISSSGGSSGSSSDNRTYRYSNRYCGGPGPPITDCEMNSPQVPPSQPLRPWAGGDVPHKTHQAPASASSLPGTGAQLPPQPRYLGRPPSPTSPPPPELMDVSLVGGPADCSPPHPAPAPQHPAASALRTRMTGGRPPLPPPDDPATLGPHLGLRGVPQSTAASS

IC50 (DYRK1A; read-out: Inhibitory activity DYRK 1A) | IC50 (DYRK1B; read-out: Inhibitory activity DYRK 1B) | IC50 (DYRK2; read-out: Inhibitory activity DYRK 2) | IC50 (DYRK3; read-out: Inhibitory activity DYRK 3) | IC50 (DYRK1A; [1]) | IC50 (DYRK1B; [2]) | IC50 (DYRK2; [3]) | IC50 (DYRK3; [4]) | SMILES
 |  |  |  | 10 to 100 nM | 10 to 100 nM | ≥ 1000 nM | ≥ 1000 nM | CN1CC[C@@H]2NC(=O)N(c3nc4c5c(ccc4s3)OCC5)[C@@H]2C1 (relative stereo) [Example 7, cis-3-(7,8-Dihydrofuro[3,2-e][1,3]benzothiazol-2-yl)-5-methyloctahydro-2H-imidazo[4,5-c]pyridin-2-one]
 |  |  |  | 10 to 100 nM | 10 to 100 nM | ≥ 1000 nM | ≥ 1000 nM | COCCN1CC[C@@H]2NC(=O)N(c3nc4c5c(ccc4s3)OCC5)[C@@H]2C1 (relative stereo) [Example 8, cis-3-(7,8-Dihydrofuro[3,2-e][1,3]benzothiazol-2-yl)-5-(2-methoxyethyl)octahydro-2H-imidazo[4,5-c]pyridin-2-one]
 |  |  |  | 10 to 100 nM | 10 to 100 nM | 100 to 1000 nM | 100 to 1000 nM | CN1CC[C@@H]2[C@H](C1)NC(=O)N2c1nc2c3c(ccc2s1)OCC3 (relative stereo) [Example 9, cis-1-(7,8-dihydrofuro[3,2-e][1,3]benzothiazol-2-yl)-5-methyloctahydro-2H-imidazo[4,5-c]pyridin-2-one]
 |  |  |  | 10 to 100 nM | 10 to 100 nM | ≥ 1000 nM | ≥ 1000 nM | CCN1CC[C@H]2NC(=O)N(c3nc4c5c(ccc4s3)OCC5)[C@H]2C1 (relative stereo) [Example 11, cis-3-(7,8-dihydrofuro[3,2-e][1,3]benzothiazol-2-yl)-5-ethyloctahydro-2H-imidazo[4,5-c]pyridin-2-one]
 |  |  |  | 10 to 100 nM | 10 to 100 nM | 100 to 1000 nM | 10 to 100 nM | CN1C[C@H]2NC(=O)N(c3nc4c5c(ccc4s3)OCC5)[C@H]2C1 (relative stereo) [Example 14, cis-1-(7,8-dihydrofuro[3,2-e][1,3]benzothiazol-2-yl)-5-methylhexahydropyrrolo[3,4-d]imidazol-2(1H)-one]
 |  |  |  | ≥ 1000 nM | ≥ 1000 nM | ≥ 1000 nM | ≥ 1000 nM | CN1CC[C@H]2NC(=O)N(c3nc4c5c(ccc4s3)OCC5)[C@H]2C1 (single isomer, unassigned) [Example 27]
 |  |  |  | 10 to 100 nM | 10 to 100 nM | ≥ 1000 nM | ≥ 1000 nM | CN1CC[C@@H]2NC(=O)N(c3nc4c5c(ccc4s3)OCC5)[C@@H]2C1 (single isomer, unassigned) [Example 28]

More lines, now with the values behind:

SMILES | IC50 (DYRK1A; read-out: Inhibitory activity DYRK 1A) | IC50 (DYRK1B; read-out: Inhibitory activity DYRK 1B) | IC50 (DYRK2; read-out: Inhibitory activity DYRK 2) | IC50 (DYRK3; read-out: Inhibitory activity DYRK 3) | IC50 (DYRK1A; [1]) | IC50 (DYRK1B; [2]) | IC50 (DYRK2; [3]) | IC50 (DYRK3; [4])
N#CCN1CC[C@@H]2NC(=O)N(c3nc4c5c(ccc4s3)OCC5)[C@@H]2C1 (racemic) [Example 100, rac-[(3aR,7aS)-3-(7,8-dihydrofuro[3,2-e][1,3]benzothiazol-2-yl)-2-oxooctahydro-5H-imidazo[4,5-c]pyridin-5-yl]acetonitrile] | < 10 nM | 10 to 100 nM | ≥ 1000 nM | ≥ 1000 nM |  |  |  | 
O=C1N[C@H]2CCN(C3CC3)C[C@H]2N1c1nc2c3c(ccc2s1)OCCO3 (single isomer, unassigned) [Example 34] |  |  |  |  | < 10 nM | 10 to 100 nM | ≥ 1000 nM | ≥ 1000 nM
O=C1N[C@@H]2[C@@H](CO[C@@H]2CO)N1c1nc2c3c(ccc2s1)OCC3 [Example 153] |  |  |  |  | 10 to 100 nM |  | 100 to 1000 nM | 100 to 1000 nM
O=C1N[C@@H]2CO[C@H](CO)[C@@H]2N1c1nc2c3c(ccc2s1)OCC3 [Example 154] |  |  |  |  | ≥ 1000 nM |  | ≥ 1000 nM | ≥ 1000 nM
O=C1N[C@H]2CO[C@H](CO)[C@H]2N1c1nc2c3c(ccc2s1)OCC3 [Example 157, (3aR,6S,6aS)-1-(7,8-dihydrofuro[3,2-e][1,3]benzothiazol-2-yl)-6-(hydroxymethyl)tetrahydro-1H-furo[3,4-d]imidazol-2(3H)-one] |  |  |  |  |  | 10 to 100 nM | 100 to 1000 nM | 100 to 1000 nM
N#CC[C@H]1OC[C@@H]2NC(=O)N(c3nc4c5c(ccc4s3)OCC5)[C@@H]21 [Example 162, [(3aS,4R,6aR)-3-(7,8-Dihydrofuro[3,2-e][1,3]benzothiazol-2-yl)-2-oxohexahydro-1H-furo[3,4-d]imidazol-4-yl]acetonitrile] |  |  |  |  |  | 10 to 100 nM | 100 to 1000 nM | 100 to 1000 nM
